Entries after “also recorded” stand apart in the source; their conditions may differ. Where two headings read alike, the source gives them in different places.
Experiments:
[1] = system: SNI rats; experiment: Spared nerve injury (SNI) rats, von Frey monofilament test; assay type: in vivo, rat; conditions: for duration of elevated mechanical thresholds: 10 mg/kg P.O.
Procedure: FIG. 3B. Mechanical pain threshold assessment (von Frey monofilament test) of SNI rats' left hindpaws. Each SNI rat received either EXAMPLE-106, -107, and -115 (each 30 mg/kg, 1 mL I.P.), or vehicle (1 mL I.P. 2% DMSO in 0.5% HPC). Sham rats also received vehicle I.P. injections. […] The sham-vehicle serves as a positive control. Thermal and mechanical pain responses were measured once every hour for 8 consecutive hours after I.P. treatment (n=8 rats per treatment group).
FIG. 4. Mechanical pain threshold assessment (von Frey monofilament test) of left hindpaws in another cohort of SNI rats. Each SNI rat received either EXAMPLE-128, -130, -132, or Z944 (as a reference compound, each 10 mg/kg, 2 mL oral gavage, P.O.). […] Mechanical pain responses were measured at pre-dosing, 1, 2, 4, and 6 hours post-treatment using von Frey monofilament test (n=8 rats per group).
In additional examples shown here, the analgesic effects were further evaluated in another rat species. Baseline thermal and mechanical thresholds of male rats (Sprague-Dawley rats, 275 g-325 g, Harlan) were taken prior to surgery; baseline thresholds were measured on the rats' left hindpaws. Thirty-two rats underwent the SNI surgery on their left hind leg; 8 rats underwent surgery without injury of the nerves as a sham group. Two weeks post-surgery, the thermal thresholds of each rat were reassessed. […] Each rat received either EXAMPLE-106, -107, -115 (each 30 mg/kg, 1 mL I.P.), or vehicle (2% DMSO in 0.5% HPC). Thermal and mechanical thresholds were measured at 1, 2, 3, 4, 5, 6, 7, and 8 hours post-treatment/dosing. […] The drug actions started around 1 hour post-injection and peaked between 2 and 3 hours, and the drug effects gradually declined to pre-treatment levels over 6-7 hours (FIGS. 3A and B).
In another cohort of SNI rats ((n=8 per group)), mechanical thresholds were measured at pre-dosing, 1, 2, 4, and 6 hours post-treatment using von Frey monofilament test.

[2] = system: SNL rats; experiment: Spinal nerve ligation (SNL) rats, von Frey monofilament test; assay type: in vivo, rat; conditions: for order of analgesic efficacy against allodynia: each 30 mg/kg P.O.; for SNL Model Mechanical % of baseline: pain in rats, 30 mg/kg, P.O.
Procedure: FIG. 5A. Mechanical pain threshold assessment (von Frey monofilament test) of spinal nerve ligation (SNL) rats' left hindpaws. Each SNL rat received either EXAMPLE-128, at 3, 10 or 30 mg/kg (2 mL oral gavage, P.O.), or vehicle (2 mL 2% DMSO in 0.5% HPC, P.O.). […] Mechanical pain responses were measured at 1, 2, 4 and 6 hours after treatment (n=8 rats per treatment group).
FIG. 5B. Mechanical pain threshold assessment (von Frey monofilament test) of SNL rats' left hindpaws. In the same cohort of animals, each SNL rat received either EXAMPLE-128, -130, Z944 (as a reference compound, each at 30 mg/kg, 2 mL oral gavage, P.O.), or vehicle (2 mL 2% DMSO in 0.5% HPC, P.O.). The degree of analgesia against allodynia in the order of EXAMPLE-128>Z944>EXAMPLE-130 compared to the […] group. Mechanical pain responses were measured at 1, 2, 4 and 6 hours after treatment (n=8 rats per treatment group).
The spinal nerve ligation (SNL) in rats is another commonly used neuropathic pain model (Kim & Chung, 1992). The analgesic effect of the selected EXAMPLE-128 was tested in this model. Baseline mechanical thresholds on the rats' left hindpaws of male rats (Sprague-Dawley rats, 300 g-350 g, Harlan) were taken using von Frey hair monofilaments prior to surgery. Ligation of the L5 peripheral nerve was made on the left side under anesthesia. Total 32 rats underwent surgery (n=8 rats per treatment group). Ten days post-surgery, approximately 75-85(%) reduction in mechanical pain was observed, confirming the presence of mechanical allodynia in the SNL rats. Each rat received either EXAMPLE-128 (at 3, 10 and 30 mg/kg, each dose in […], P.O.), or vehicle (2% DMSO in 0.5% HPC, […], P.O.). Mechanical thresholds were measured at 1, 2, 4, and 6 hours post-treatment/dosing. […] The drug actions started around 1 hour post-injection and peaked between 1 and 2 hours, and the drug effects gradually declined to pre-treatment levels in 6 hours (FIG. 5A). After the drug had been eliminated, and the thresholds had returned to initial mechanical allodynia, a comparative test of EXAMPLE-128 and -130 vs Z944 (each at 30 mg/kg, P.O.) was conducted in the same cohort of SNL rats. The analgesic efficacy is in the order of EXAMPLE-128>Z944>EXAMPLE-130 (FIG. 5B).

[3] = Plasma protein binding, human; assay type: in vitro ADME; conditions: for fraction unbound: read-out: PPB % (Human) (converted)
Text: (§1) In vitro data of metabolic stability and protein binding as well as in vivo pharmacokinetic data for compounds of the invention can be generated using the techniques disclosed in, e.g., Obach, R. S. et al., J. Pharmacol. Exp. Ther. 283(1): 46-58 (1997), which is hereby incorporated by reference in its entirety. Various biological, pharmacokinetic and other properties of the compounds, including hepatic microsomal stability, determination of metabolites, binding to proteins such as plasma protein binding, and in vivo studies, including single-dose and multi-dose pharmacokinetic studies, can be determined using the protocols described in that publication and the publications cited therein. Other aspects and advantages of the present invention will become apparent from the above detailed description, as illustrated by way of example of the principles of the invention. The scope of the invention is to be defined by the claims appended hereto and their equivalents. Selected pharmacokinetic studies in vitro and in vivo in rats were performed for preferred compounds, for example EXAMPLE-128 and compared with two reference compounds ML218 and Z944 by a contract research organization (BioDuro, Inc., San Diego, US). Tables 3A and 3B summarize some of the in vitro and vivo pharmacodynamic and pharmacokinetic parameters, respectively.

[4] = Plasma stability, rat; assay type: in vitro ADME
Text: as §1

[5] = Rat pharmacokinetics; assay type: in vivo; conditions: for half-life / AUC / bioavailability: plasma; for AUC: read-out: Rat PK AUCfree; for bioavailability: read-out: Rat PK F (%) bioavailability
Text: as §1

[6] = system: SNI rats; experiment: Spared nerve injury (SNI) rats, von Frey monofilament test; assay type: in vivo, rat; conditions: pain in rats, 30 mg/kg, P.O.
[7] = 10 mg/kg oral gavage, P.O., 10 mg/kg
[8] = SNL rats, 3, 10 and 30 mg/kg P.O.
[9] = iv, read-out: Plasma t1/2 (h) iv (converted)
[10] = po, read-out: Plasma t1/2 (h) po (converted)

Structure (SMILES) | duration of elevated mechanical thresholds [1] | mechanical pain threshold of left hindpaw (allodynia) [1, 7] | order of analgesic efficacy against allodynia ([2]; SNL rats) | recovery [3] | fraction unbound [3] | Plasma Stability @ 5 h % (Rat) [4] | start of drug action post-injection [2, 8] | time for drug effects to decline to pre-treatment levels [2, 8] | mechanical pain threshold of left hindpaw (allodynia) ([2]; SNL rats, 3, 10 or 30 mg/kg P.O.) | SNL Model Mechanical % of baseline [2] | Rat PK AUCtotal (μM*h) [5] | half-life [5, 9] | half-life [5, 10] | AUC [5] | bioavailability [5] | SNI-Model Mechanical % of baseline [6] | start of drug action post-injection ([1]; 30 mg/kg I.P., thermal and mechanical thresholds) | mechanical pain threshold of left hindpaw (allodynia) ([1]; 30 mg/kg, 1 mL I.P.)
CC(C)(C)NC(=O)CN1CCC2(CC1)C[C@H]2NC(=O)c1cc(F)cc(C(F)(F)F)c1 (single isomer, unassigned) [Example 130, (R)—N-(6-(2-(tert-Butylamino)-2-oxoethyl)-6-azaspiro[2.5]octan-1-yl)-3-fluoro-5-(trifluoromethyl)benzamide or (S)—N-(6-(2-(tert-Butylamino)-2-oxoethyl)-6-azaspiro[2.5]octan-1-yl)-3-fluoro-5-(trifluoromethyl)benzamide] | approximately 4 hours | elevated mechanical thresholds; also recorded: reduced allodynia | EXAMPLE-128>Z944>EXAMPLE-130 | – | – | – | – | – | – | – | – | – | – | – | – | – | – | –
CC(C)(C)NC(=O)CN1CCC2(CC1)CC2NC(=O)c1cc(F)cc(Cl)c1 (single isomer, unassigned) [Example 128, (S)—N-(6-(2-(tert-Butylamino)-2-oxoethyl)-6-azaspiro[2.5]octan-1-yl)-3-chloro-5-fluorobenzamide or (R)—N-(6-(2-(tert-Butylamino)-2-oxoethyl)-6-azaspiro[2.5]octan-1-yl)-3-chloro-5-fluorobenzamide] | approximately 4 hours | elevated mechanical thresholds; also recorded: reduced allodynia | EXAMPLE-128>Z944>EXAMPLE-130 | 98.3% | 0.043 | 98.3% | around 1 hour | 6 h | elevated mechanical thresholds in a dose-related manner; also recorded: reduced allodynia compared to the SNI-vehicle group in a dose-related manner | 129 ± 28 % of baseline | 4.1 h/µM | 3.34 h | 3.66 h | 1 µM·h | 62% | 45 ± 15 % of baseline | – | –
O=C(Nc1nnc(-c2ccccc2)o1)c1ccc(Cl)s1 [Example 115, 5-Chloro-N-(5-phenyl-1,3,4-oxadiazol-2-yl)thiophene-2-carboxamide] | – | – | – | – | – | – | – | – | – | – | – | – | – | – | – | – | around 1 hour | elevated both thermal and mechanical thresholds; also recorded: reduced allodynia
CC(C)(C)NC(=O)CN1CCC2(CC1)C[C@H]2C(=O)Nc1cc(C(F)(F)F)cc(C(F)(F)F)c1 (single isomer, unassigned) [Example 132, (R)—N-(3,5-Bis(trifluoromethyl)phenyl)-6-(2-(tert-butylamino)-2-oxoethyl)-6-azaspiro[2.5]octane-1-carboxamide or (S)—N-(3,5-Bis(trifluoromethyl)phenyl)-6-(2-(tert-butylamino)-2-oxoethyl)-6-azaspiro[2.5]octane-1-carboxamide] | approximately 4 hours | elevated mechanical thresholds; also recorded: reduced allodynia | – | – | – | – | – | – | – | – | – | – | – | – | – | – | – | –
CC(C)(C)NC(=O)CN1CCC(CNC(=O)c2cc(F)cc(Cl)c2)CC1 [Z944, reference compound] | approximately 4 hours | elevated mechanical thresholds; also recorded: reduced allodynia | EXAMPLE-128>Z944>EXAMPLE-130 | 93.6% | 0.064 | 100% | – | – | – | 94 ± 38 % of baseline | 0.51 h/µM | 1.5 h | 2.26 h | 0.14 µM·h | 55% | 28 ± 18 % of baseline | – | –
CC(C)(C)CCN1C[C@@H]2[C@@H](CNC(=O)c3cc(Cl)cc(Cl)c3)[C@@H]2C1 [ML218, 3,5-Dichloro-N-[[(1α,5α,6-exo,6α)-3-(3,3-dimethylbutyl)-3-azabicyclo[3.1.0]hex-6-yl]methyl]benzamide, reference compound] | – | – | – | 97.1% | 0.046 | 99.2% | – | – | – | – | 0.071 h/µM | 236 h | – | 0.007 µM·h | 28% | 45 ± 11 % of baseline | – | –
